Assays:
[1] = target: T1, indoleamine 2,3-dioxygenase (IDO) (Homo sapiens, UniProt P14902); experiment: HeLa cell-based indoleamine 2,3-dioxygenase (IDO) assay (IFNγ-induced kynurenine production, absorbance 480 nm); details: HeLa cells, IFNγ 25 ng/mL, 48 hour incubation
T1 construct: host or cells: HeLa cells treated with IFNγ (25 ng/mL)
Procedure: Assessment of inhibitor activity in HeLa cell-based indoleamine 2,3-dioxygenase (IDO) assay:
HeLa (ATCC® CCL-2) cells were obtained from the ATCC® and cultured in Dulbecco's Modified Eagle Medium supplemented with 4.5 g/L glucose, […] L-glutamine and […] (#10-013-CV, Corning), 2 mM L-alanyl-L-glutamine dipeptide (#35050-061, Gibco), 100U/mL penicillin, 100 μg/mL stroptomycin (#SV30010. HyClone) and 10% fetal bovine serum (#SH30071.03 HyClone). Cells were maintained in a humidified incubator at 37° C. in 5% CO2.
IDO activity was assessed as a function of kynurenine production as follows: HeLa cells were seeded in a 96-well culture plate at a density of 5,000 cells/well and allowed to equilibrate overnight. After 24 hours, the media was aspirated and replaced with media containing IFNγ (#285-IF/CF, R&D Systems) at a final concentration of 25 ng/mL. A serial dilution of each test compound was added to the cells in a total volume of 200 μL of culture medium. After a further 48 hour incubation, 170 μL of supernatant was transferred from each well to a fresh 96-well plate, 12.1 μL of 6.1N trichloroacetic acid (#T0699, Sigma-Aldrich) was added to each well and mixed, followed by incubation at 65° C. for 20 minutes to hydrolyze N-formylkynurenine, the product of indoleamine 2,3-dioxygenase, to kynurenine. The reaction mixture was then centrifuged for 10 mins at 500×g to sediment the precipitate. 100 μL of the supernatant was transferred from each well to a fresh 96-well plate. 100 μl of 2% (w/v) p-dimethylaminobenzaldehyde (#15647-7, Sigma-Aldrich) in acetic acid (#A6283, Sigma-Aldrich) was added to each well mixed and incubated at room temperature for 20 mins. Kynurenine concentrations were determined by measuring absorbance at 480 nm and calibrating against an L-kynurenine (#K8625, Sigma-Aldrich) standard curve using a SPECTRAMAX® M2e microplate reader (Molecular Devices). The percentage activity at each inhibitor concentration was determined and IC50 values assessed using nonlinear regression.

[2] = target: T2, human IDO1 (Homo sapiens, UniProt P14902); experiment: IDO inhibition assay in HEK293 cells stably expressing human IDO1 (kynurenine, Ehrlich reagent, absorbance 490 nm); assay type: cell-based; details: 20 hours incubation, read-out: IDO1 HEK Human IC50
T2 construct: expressed in transfected cells
T2 sequence (P14902 whole entry): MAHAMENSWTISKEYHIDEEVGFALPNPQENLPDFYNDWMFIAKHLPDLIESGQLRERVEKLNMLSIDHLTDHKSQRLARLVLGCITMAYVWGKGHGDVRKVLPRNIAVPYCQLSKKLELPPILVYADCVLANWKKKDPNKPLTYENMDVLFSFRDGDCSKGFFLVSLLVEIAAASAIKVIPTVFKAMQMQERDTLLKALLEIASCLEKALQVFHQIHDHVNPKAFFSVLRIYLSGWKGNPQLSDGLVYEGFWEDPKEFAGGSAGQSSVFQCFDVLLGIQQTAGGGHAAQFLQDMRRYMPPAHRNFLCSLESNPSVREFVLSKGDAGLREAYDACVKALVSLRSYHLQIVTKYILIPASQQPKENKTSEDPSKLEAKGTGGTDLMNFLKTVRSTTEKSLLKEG
Procedure: HEK293 cells were transfected with a pCDNA-based mammalian expression vector harboring human IDO1 cDNA (NM 002164.2) by electroporation. They were cultured in medium (DMEM with 10% FBS) containing 1 mg/ml G418 for two weeks. Clones of HEK293 cells that stably expressed human IDO1 protein were selected and expanded for IDO inhibition assay. The human IDO1/HEK293 cells were seeded at 10,000 cells per 50 μL per well with RPMI/phenol red free media contains 10% FBS in a 384-well black wall clear bottom tissue culture plate (Matrix Technologies LLC) 100 nL of certain concentration of compound was then added to each well using ECHO liquid handling systems. The cells were incubated for 20 hours in 37° C. incubator with 5% CO2. The compound treatments were stopped by adding trichloroacetic acid (Sigma-Aldrich) to a final concentration at 0.2%. The cell plate was further incubated at 50° C. for 30 minute. The equal volume supernatant ([…]) and 0.2% (w/v) Ehrlich reagent (4-dimethylaminobenzaldehyde, Sigma-Aldrich) in glacial acetic acid were mixed in a new clear bottom 384-well plate. This plate was then incubated at room temperature for 30 minute. The absorbance at 490 nm was measured on Envision plate reader. Compound IC50 values were calculated using the counts of 500 nM of a reference standard treatment as one hundred percent inhibition, and counts of no compound but DMSO treatment as zero percent inhibition.

T1 sequence (P14902 whole entry): as above

| IC50 [1] [nM] | IC50 [2] [nM] | SMILES |
| --- | --- | --- |
| 4.7 | 6 | CCC(Nc1nnc(-c2ccc(OC)cc2)o1)C1CCC(c2ccnc3ccc(C(F)(F)F)cc23)CC1 (single isomer, unassigned) [Example 59, 5-(4-methoxyphenyl)-N-(1-((1s,4s)-4-(6-(trifluoromethyl)quinolin-4-yl)cyclohexyl)propyl)-1,3,4-oxadiazol-2-amine] |
| 13.3 | 10.6 | Cc1cnc(-c2nnc(N[C@H](C)[C@H]3CC[C@@H](c4ccnc5ccc(F)cc54)CC3)o2)s1 [Example 30, N-((R)-1-((1s,4S)-4-(6-fluoroquinolin-4-yl)cyclohexyl)ethyl)-5-(5-methylthiazol-2-yl)-1,3,4 oxadiazol-2-amine] |
| 72.2 | 36.2 | C[C@@H](c1nnc(-c2cccc(F)c2)[nH]1)[C@H]1CC[C@@H](c2ccnc3ccc(F)cc32)CC1 [Example 14, 6-fluoro-4-((1S,4s)-4-((R)-1-(5-(3-fluorophenyl)-4H-1,2,4-triazol-3-yl)ethyl)cyclohexyl)quinoline] |
| 162 | 86 | C[C@@H](c1nnc(-c2ccc(F)c(Cl)c2)[nH]1)[C@H]1CC[C@@H](c2ccnc3ccc(F)cc32)CC1 [Example 11, 4-((1S,4s)-4-((R)-1-(5-(3-chloro-4-fluorophenyl)-4H-1,2,4-triazol-3-yl)ethyl)cyclohexyl)-6-fluoroquinoline] |
| 35 | 15.1 | C[C@@H](c1nnc(-c2ccc(Cl)cc2)s1)[C@H]1CC[C@@H](c2ccnc3ccc(F)cc32)CC1 [Example 5, 2-(4-Chlorophenyl)-5-((R)-1-((1s,4S)-4-(6-fluoroquinolin-4-yl)cyclohexyl)ethyl)-1,3,4-thiadiazole] |
| 10.5 | 12.4 | C[C@@H](c1ncc(-c2ccc(Cl)cc2)[nH]1)[C@H]1CC[C@@H](c2ccnc3ccc(F)cc32)CC1 [Example 44, 4-((1s,4s)-4-((R)-1-(5-(4-Chlorophenyl)-1H-imidazol-2-yl)ethyl)cyclohexyl)-6-fluoroquinoline] |
| 390 | 23.1 | C[C@@H](Nc1nnc(-c2ccc(C#N)cc2)[nH]1)[C@H]1CC[C@@H](c2ccnc3ccc(F)cc32)CC1 [Example 41, 4-(5-((R)-1-((1s,4S)-4-(6-Fluoroquinolin-4-yl)cyclohexyl)ethylamino)-4H-1,2,4-triazol-3-yl)benzonitrile] |
| 16.7 | 42.3 | C[C@@H](c1nnc(-c2ccc(F)cc2)[nH]1)[C@H]1CC[C@@H](c2ccnc3ccc(F)cc32)CC1 [Example 3, 6-Fluoro-4-((1s,4s)-4-((R)-1-(5-(4-fluorophenyl)-4H-1,2,4-triazol-3-yl)ethyl)cyclohexyl)quinoline] |
| 8.8 | 5.9 | C[C@@H](c1nnc(Nc2ccccc2)[nH]1)[C@H]1CC[C@@H](c2ccnc3ccc(F)cc32)CC1 [Example 22, 5-((R)-1-((1s,4s)-4-(6-Fluoroquinolin-4-yl)cyclohexyl)ethyl)-N-phenyl-4H-1,2,4-triazol-3-amine] |
| 34.8 | 39.2 | C[C@@H](c1nnc(-c2ccc(F)cc2)o1)[C@H]1CC[C@@H](c2ccnc3ccc(F)cc32)CC1 [Example 2, 2-(4-Fluorophenyl)-5-((R)-1-((1s,4s)-4-(6-fluoroquinolin-4-yl)cyclohexyl)ethyl)-1,3,4-oxadiazole] |
| 5.4 | 5.5 | C[C@@H](Nc1nnc(-c2ccc(Cl)cc2)s1)[C@H]1CC[C@@H](c2ccnc3ccc(F)cc32)CC1 [Example 24, 5-(4-Chlorophenyl)-N—((R)-1-((1s,4S)-4-(6-fluoroquinolin-4-yl)cyclohexyl)ethyl)-1,3,4-thiadiazol-2-amine] |
| 15.6 | – | COCC(Nc1nnc(-c2ccc(OC)cc2)o1)[C@H]1CC[C@@H](c2ccnc3ccc(F)cc32)CC1 (single isomer, unassigned) [Example 65-1, N-(1-((1s,4s)-4-(6-Fluoroquinolin-4-yl)cyclohexyl)-2-methoxyethyl)-5-(4-methoxyphenyl)-1,3,4-oxadiazol-2-amine] |
| 55.5 | 66.3 | CC(C)Oc1ccc(-c2nnc([C@H](C)[C@H]3CC[C@@H](c4ccnc5ccc(F)cc54)CC3)o2)cc1 [Example 18, 2-((R)-1-((1s,4S)-4-(6-fluoroquinolin-4-yl)cyclohexyl)ethyl)-5-(4-isopropoxyphenyl)-1,3,4-oxadiazole] |
| 21.1 | – | C[C@@H](Nc1ncc(-c2ccc(Cl)cc2)o1)[C@H]1CC[C@@H](c2ccnc3ccc(F)cc32)CC1 [Example 38, 5-(4-Chlorophenyl)-N—((R)-1-((1s,4S)-4-(6-fluoroquinolin-4-yl)cyclohexyl)ethyl)oxazol-2-amine] |
| 5.5 | 13.8 | C[C@@H](c1nnc(-c2ccccc2)o1)[C@H]1CC[C@@H](c2ccnc3ccc(F)cc32)CC1 [Example 19, 2-((R)-1-((1s,4S)-4-(6-fluoroquinolin-4-yl)cyclohexyl)ethyl)-5-phenyl-1,3,4-oxadiazole] |
| 39 | 22.5 | CC(C)Oc1ccc(-c2nnc([C@H](C)[C@H]3CC[C@@H](c4ccnc5ccc(F)cc54)CC3)[nH]2)cc1 [Example 12, 6-fluoro-4-((1S,4s)-4-((R)-1-(5-(4-isopropoxyphenyl)-4H-1,2,4-triazol-3-yl)ethyl)cyclohexyl)quinoline] |
| 55.3 | 23.5 | C[C@@H](Nc1nnc(-c2ccc(C#N)cc2)o1)[C@H]1CC[C@@H](c2ccnc3ccc(F)cc32)CC1 [Example 29, 4-(5-((R)-1-((1s,4S)-4-(6-fluoroquinolin-4-yl)cyclohexyl)ethylamino)-1,3,4-oxadiazol-2-yl)benzonitrile] |
| 14.8 | 47.5 | C[C@@H](c1nnc(-c2ccc(Cl)cc2)[nH]1)[C@H]1CC[C@@H](c2ccnc3ccc(F)cc32)CC1 [Example 1, 4-((1s,4s)-4-((R)-1-(5-(4-Chlorophenyl)-4H-1,2,4-triazol-3-yl)ethyl)cyclohexyl)-6-fluoroquinoline] |
| 118 | 48.2 | C[C@@H](c1nnc(-c2ccccc2)[nH]1)[C@H]1CC[C@@H](c2ccnc3ccc(F)cc32)CC1 [Example 13, 6-fluoro-4-((1S,4s)-4-((R)-1-(5-phenyl-4H-1,2,4-triazol-3-yl)ethyl)cyclohexyl)quinoline] |
| 3.5 | 1.7 | CCC(Nc1nnc(-c2ccc(F)cc2)o1)C1CCC(c2ccnc3ccc(C(F)(F)F)cc23)CC1 (single isomer, unassigned) [Example 62, 5-(4-fluorophenyl)-N-(1-((1s,4s)-4-(6-(trifluoromethyl)quinolin-4-yl)cyclohexyl)propyl)-1,3,4-oxadiazol-2-amine] |
